Laboratory results published in patent US10591478B2, “Methods for molecular classification of fatty liver by high-throughput protein post-translational modifications” (ROSEMAN UNIVERSITY OF HEALTH SCIENCES, priority 2015, dated 2020).
Entries after “also recorded” stand apart in the source; their conditions may differ.

Tests used:
HepG2 cells = test: 1D Western blot of HepG2 total cell extracts with antibodies against O-GlcNAc; format: cell-based; conditions: HepG2, 100 μM PUGNAc, 48 hours
Experimental: HepG2 cells were maintained in DMEM media with 25 mM glucose and 10% fetal calf serum. HepG2 cells were treated for 48 hours with 100 μM PUGNAc (Cat. No. A7229, Sigma, St. Louis, Mo.). Total HepG2 cell extracts were collected and evaluated with 1D Western blots using antibodies against O-GlcNAc.
HepG2 cells were first lysed with M-Per lysis buffer (Pierce, Rockford, Ill., USA) in the presence of protease and phosphatase inhibitors. For cIEF immunoassays, total cell lysates were prepared in Premix G2 pH 5-8 separation gradient containing pI standards (ProteinSimple).
HepG2 total cell extracts were analyzed on 10% SDS-polyacrylamide gel. Secondary antibodies were purchased from LI-COR (Lincoln, Nebr., Cat. No. 92668070). Immunoblots were detected with the LI-COR's Odyssey CLx imaging system.

FOXO1 = test: cIEF immunoassay of FOXO1 pI distribution in HepG2 cells; format: cell-based; conditions: 48 hours
Experimental: A NanoPro 1000 cIEF system (Protein Simple, Santa Clara, Calif., USA) was employed for profiling protein PTM. Samples of 400 nl volume were separated by isoelectric focusing using the 96-capillary system, followed by immobilization of the proteins onto the inner capillary walls. Primary and secondary antibodies (Tables 2 and FIG. 6) were introduced into the capillaries, followed by chemiluminescence detection reagents. The incubation times were 110 and 55 min for primary and secondary antibodies, respectively. The separation time was 50 minutes at […]. All samples were loaded in triplicate into capillaries to evaluate the consistency of capillary-to-capillary measurement. Each experiment was performed in triplicate to ensure repeatability. A minimum of nine cIEF measurements were done for each protein per animal group. […]
HepG2 cells were maintained in DMEM media with 25 mM glucose and 10% fetal calf serum. […] Total HepG2 cell extracts were collected and evaluated with 1D Western blots using antibodies against O-GlcNAc.
HepG2 cells were transiently transfected with an expression vector that expressed FOXO1 with a Myc-DDK tag (Cat. No. RC200477, Origene, Rockville, Md.). […] HepG2 cells were treated for 48 hours with 500 μM glucosamine Total HepG2 cell extracts were collected and evaluated with 1D and 2D Western blots using antibodies against FLAG tag. […]

Akt = test: cIEF immunoassay phosphorylation profile of Akt in liver tissues; format: in vivo, mouse; conditions: C57BL/6J+F liver vs C57BL/6J
Experimental: (§1) C57BL/6 J and UPase1-TG mice were fed a lean diet that provides 4.6 kcal/g (22% by calorific value from fat, 23% from protein, and 55% from carbohydrates; PicoLab Mouse Diet, Catalog No 5058, LabDiet, Brentwood, Mo., USA). C57BL/6 J+LD mice were fed a lean diet for 16 weeks. C57BL/6 J+F mice were fed a lean diet supplemented with fenofibrate (400 mg/kg per day) for 5 days. C57BL/6 J+HFD mice were fed a high-fat diet that provides 5.24 kcal/g (60% from fat, 20% from protein, and 20% from carbohydrates) for 16 weeks (Catalog No D12492, Research Diets Inc, New Brunswick, N.J., USA). C57BL/6 J mice served as a control for C57BL/6 J+LD, UPase1-TG, and C57BL/6 J+F mice. On the other hand, C57BL/6 J+LD mice served as a control for C57BL/6 J+HFD mice. All animal studies were performed in conformity with the Public Health Service Policy on Humane Care and Use of Laboratory Animals and with the approval of the Animal Care and Use Committees at Nevada Cancer Institute, Desert Research Institute, and Touro University Nevada.
(§2) Approximately 500 mg of frozen liver tissues was added to 300 μl of RIPA buffer (Cat. No. 8990, Life Technologies, Grand Island, N.Y. 14702) containing proteinase and phosphatase inhibitors and homogenized twice at 6 seconds duration. […]

LCAT = test: cIEF immunoassay PTM profile of LCAT in liver tissues; format: in vivo, mouse
Experimental: as §1, §2

[1] = system: liver tissues (hepatic steatosis); test: Assessment of hepatic steatosis with CARS microscopy and Oil Red O histology; format: in vivo, mouse; conditions: C57BL/6J+F mice, fenofibrate diet (400 mg/kg per day) for 5 days
Experimental: as §1

PFK1 = test: cIEF immunoassay PTM profile of PFK1 in liver tissues; format: in vivo, mouse; conditions: C57BL/6J+F liver vs control C57BL/6J
Experimental: as §1, §2

ChREBP = test: cIEF immunoassay PTM profile of ChREBP in liver tissues; format: in vivo, mouse; conditions: C57BL/6J+F liver vs control C57BL/6J
Experimental: as §1, §2

HMGCS2 = test: cIEF immunoassay PTM profile of HMGCS2 in liver tissues; format: in vivo, mouse; conditions: C57BL/6J+F liver vs C57BL/6J
Experimental: as §1, §2

ERK1/2 = test: cIEF immunoassay phosphorylation profile of ERK1/2 in liver tissues; format: in vivo, mouse; conditions: C57BL/6J+F liver vs control C57BL/6J
Experimental: as §1, §2

LCAD = test: cIEF immunoassay PTM profile of LCAD in liver tissues; format: in vivo, mouse; conditions: C57BL/6J+F liver vs control C57BL/6J
Experimental: as §1, §2

FLAG-tagged FOXO1 = test: 2D Western blot of FLAG-tagged FOXO1 in HepG2 cells; format: cell-based; conditions: HepG2 transfected with FLAG-tagged FOXO1, 500 μM glucosamine, 48 hours
Experimental: HepG2 cells were transiently transfected with an expression vector that expressed FOXO1 with a Myc-DDK tag (Cat. No. RC200477, Origene, Rockville, Md.). Transfection reagent was purchased from Life Technologies (Lipofectamine 2000, Cat. No. 11668-019, Grand Island, N.Y. 14702). HepG2 cells were treated for 48 hours with 500 μM glucosamine Total HepG2 cell extracts were collected and evaluated with 1D and 2D Western blots using antibodies against FLAG tag.
2D Western blots of HepG2 total protein extracts were performed by Kendrick Laboratories (Madison, Wis.). Total protein extracts was diluted with 100 ul of SDS Boiling Buffer and microdialyzed overnight using 6-8,000 MWCO membrane at 4° C. Samples were then lyophilized and redissolved to 3.33 mg/ml in diluted SDS boiling Buffer:Urea Sample Buffer before loading. A total of 500 μg of total protein extracts or 150 μl was loaded for isoeletric focusing. Carrier ampholine method of isoelectric focusing was carried out in a glass tube of inner diameter 3.3 mm using 2.0% pH 4-8 mix Servalytes (Serva, Heidelberg, Germany) for 20,000 volt-hrs. After equilibration for 10 minutes in 10% glycerol, 50 mM dithiothreitol, 2.3% SDS and 0.0625 M tris, pH 6.8, each tube gel was sealed to the top of a stacking gel that overlaid a 10% acrylamide slab gel. SDS slab gel electrophoresis was carried out for about 5 hours at 25 mA/gel. […]

SMILES: CC(=O)N[C@H]1/C(=N/OC(=O)Nc2ccccc2)O[C@H](CO)[C@@H](O)[C@@H]1O [PUGNAc]
- overall protein O-linked glycosylation profile of HepG2 total cell extract (HepG2 cells): increased
- new FOXO1 peak, pI (FOXO1; HepG2, 100 μM PUGNAc): 8.25 pI

SMILES: CC(C)OC(=O)C(C)(C)Oc1ccc(C(=O)c2ccc(Cl)cc2)cc1 [fenofibrate]
- Akt phosphorylation level, lower compared to control (Akt): approximately 30%
- LCAT observed pI value (LCAT; C57BL/6J+F liver): 5.8 pI
- glycosylated LCAT isoforms, folds lower (LCAT; C57BL/6J+F liver vs C57BL/6J): ~10 folds
- Fatty liver classification [1]: severe microvesicular steatosis
- reduction of phosphorylated PFK-1 isoform, areas under the curve (PFK1): ~10 folds
- reduction of phosphorylated ChREBP isoforms (ChREBP): 60%
- PTM increase for HMGCS2, areas under the curve from pI 5.7 to 6.4 (HMGCS2): 2 folds
- increase of ERK1/2 phosphorylated isoforms, areas under the curve (ERK1/2): ~30%
- glycosylated LCAD isoform, folds higher, areas under the curve (LCAD): 2 folds

SMILES: N[C@H]1C(O)O[C@H](CO)[C@@H](O)[C@@H]1O (stereo partly shown) [glucosamine]
- FLAG-tagged FOXO1 pI on 2D Western blot (FLAG-tagged FOXO1): shift to FLAG-tagged FOXO1 toward basic pI values; also recorded: additional gel spot at a basic pI value
- FOXO1 peaks in cIEF, pI (FOXO1; HepG2, 500 μM glucosamine): > 7.5 pI
